Where only a bound is given, the exact number is not on record here.

The first experiment deals with T1, TNIK (Homo sapiens, UniProt Q9UKE5).
T1 construct: purchased Promega V4158
T1 sequence (Q9UKE5 1-367 limits assumed): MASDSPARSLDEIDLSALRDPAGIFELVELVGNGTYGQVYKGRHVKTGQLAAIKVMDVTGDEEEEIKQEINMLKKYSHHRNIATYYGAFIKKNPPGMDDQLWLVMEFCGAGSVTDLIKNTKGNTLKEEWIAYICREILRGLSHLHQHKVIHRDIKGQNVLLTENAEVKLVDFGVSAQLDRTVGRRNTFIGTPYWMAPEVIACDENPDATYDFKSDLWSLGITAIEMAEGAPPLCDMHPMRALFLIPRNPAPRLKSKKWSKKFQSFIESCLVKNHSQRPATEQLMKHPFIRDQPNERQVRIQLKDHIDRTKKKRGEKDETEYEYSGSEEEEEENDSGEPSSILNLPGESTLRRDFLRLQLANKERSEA
As to the kind of experiment: ADP-Glo Kinase Assay, inhibition activity on TNIK. Type of experiment: biochemical.
Details: not given
As to the method: The inhibition activities on TNIK, IKKε and TBK1 were measured by a luminometer, TNIK/IKKε/TBK1 Kinase Enzyme System (Promega, Ca# V4158; Invitrogen, PR8031B, Promega, Ca# V3991) and ADP-Glo Kinase Assay using ADP-Glo™ Kinase Analysis Kit (Promega, Ca# V9101) and a kinase reaction buffer [40 mM Tris(pH 7.5), 20 mM MgCl2, 0.1 mg/mL BSA] in accordance with the manufacturer's protocol.
On to `O=C1NCc2c(-c3ccccc3)ccc(NCCN3C(=O)c4ccccc4C3=O)c21` [Example 257, 2-(2-((3-Oxo-7-phenylisoindolin-4-yl)amino)ethyl)isoindolin-1,3-dione], for which the “TNIK (μM)” value is listed as “Insoluble”.

Turning to `O=C1NCc2c(-c3ccccc3)ccc(NCCCN3C(=O)c4ccccc4C3=O)c21` [Example 264, 2-(3-((3-Oxo-7-phenylisoindolin-4-yl)amino)propyl)isoindolin-1,3-dione], the “TNIK (μM)” value is listed as “Insoluble”.

Turning to `COc1cccc(-c2ccc(N)c3c2C(=O)NC3=O)c1OC` [Example 273, 4-Amino-7-(2,3-dimethoxyphenyl)isoindolin-1,3-dione], the “TNIK (μM)” value was “Insoluble”.

The same experiment, now with this note: TNIK (μM).
Consider `O=C1NCc2c(-c3ccccc3)ccc(NCCCl)c21` [Example 253, 7-((2-Chloroethyl)amino)-4-phenylisoindolin-1-one], for which the IC50 worked out at 2.6 µM.

The same experiment, now with this note: read-out: TNIK.
For the molecule `O=C(Nc1cccc(F)c1)Nc1ccc(-c2ccccc2)c2c1C(=O)NC2` [Example 240, 1-(3-Fluorophenyl)-3-(3-oxo-7-phenylisoindolin-4-yl)urea], the IC50 turned out to be 2.4 µM.

Turning to `CSc1cccc(NC(=O)Nc2ccc(-c3ccccc3)c3c2C(=O)NC3)c1` [Example 241, 1-(3-(Methylthio)phenyl)-3-(3-oxo-7-phenylisoindolin-4-yl) urea], the IC50 stood at 2.7 µM.

As for `O=C(Nc1ccccc1F)Nc1ccc(-c2ccccc2)c2c1C(=O)NC2` [Example 242, 1-(2-Fluorophenyl)-3-(3-oxo-7-phenylisoindolin-4-yl)urea], the IC50 was 2.3 µM.

For the molecule `O=C(Nc1ccc(Cl)cc1)Nc1ccc(-c2ccccc2)c2c1C(=O)NC2` [Example 243, 1-(4-Chlorophenyl)-3-(3-oxo-7-phenylisoindolin-4-yl)urea], the IC50 was determined as 3.9 µM.

With `COc1ccc(-c2ccc(NC(=O)Nc3ccccc3)c3c2CNC3=O)cc1` [Example 244, 1-(7-(4-Methoxyphenyl)-3-oxoisoindolin-4-yl)-3-phenylurea], the IC50 amounted to 4.02 µM.

Regarding `O=C(Nc1ccccc1)Nc1ccc(-c2ccc(F)cc2)c2c1C(=O)NC2` [Example 245, 1-(7-(4-Fluorophenyl)-3-oxoisoindolin-4-yl)-3-phenylurea], the IC50 amounted to 6.5 µM.

With `Nc1ccc(-c2ccccc2)c2c1C(=O)N(C(=O)NC1CCCCC1)C2` [Example 246, 7-Amino-N-cyclohexyl-1-oxo-4-phenylisoindolin-2-carboxamide], the IC50 is more than 20 µM.

For the molecule `O=C1NCc2c(-c3ccccc3)ccc(NC(=S)Nc3ccccc3)c21` [Example 247, 1-(3-Oxo-7-phenylisoindolin-4-yl)-3-phenylthiourea], the IC50 was more than 20 µM.

In the case of `O=C(Nc1ccc(-c2ccccc2)c2c1C(=O)NC2)Oc1ccccc1` [Example 248, Phenyl (3-oxo-7-phenylisoindolin-4-yl)carbamate], the IC50 is more than 20 µM.

`O=C1NCc2c(-c3ccccc3)ccc(NS(=O)(=O)c3ccccc3)c21` [Example 249, N-(3-oxo-7-phenylisoindolin-4-yl)benzenesulfonamide]: the IC50 was more than 20 µM.

As to `CS(=O)(=O)Nc1ccc(-c2ccccc2)c2c1C(=O)NC2` [Example 250, N-(3-oxo-7-phenylisoindolin-4-yl)methanesulfonamide], the IC50 stood at 21 µM.

Consider `O=C1NCc2c(-c3ccccc3)ccc(NS(=O)(=O)c3ccc(F)cc3)c21` [Example 251, 4-Fluoro-N-(3-oxo-7-phenylisoindolin-4-yl)benzene sulfonamide], for which the IC50 was more than 20 µM.

On to `COc1ccc(S(=O)(=O)Nc2ccc(-c3ccccc3)c3c2C(=O)NC3)cc1` [Example 252, 4-Methoxy-N-(3-oxo-7-phenylisoindolin-4-yl)benzene sulfonamide], for which the IC50 is more than 20 µM.

`N#CCCNc1ccc(-c2ccccc2)c2c1C(=O)NC2` [Example 254, 3-((3-Oxo-7-phenylisoindolin-4-yl)amino)propanenitrile]: the IC50 amounted to 5.6 µM.

Take `CN(C)CCNc1ccc(-c2ccccc2)c2c1C(=O)NC2` [Example 255, 7-((2-(Dimethylamino)ethyl)amino)-4-phenylisoindolin-1-one]: the IC50 is more than 20 µM.

With `O=C1NCc2c(-c3ccccc3)ccc(NCCO)c21` [Example 256, 7-((2-Hydroxyethyl)amino)-4-phenylisoindolin-1-one], the IC50 came out at 4.9 µM.

`CN1CCN(CCNc2ccc(-c3ccccc3)c3c2C(=O)NC3)CC1` [Example 258, 7-((2-(4-Methylpiperazin-1-yl)ethyl)amino)-4-phenylisoindolin-1-one]: the IC50 was more than 20 µM.

On to `O=C1NCc2c(-c3ccccc3)ccc(NCCN3CCCCC3)c21` [Example 259, 4-Phenyl-7-((2-(piperidin-1-yl)ethyl)amino)isoindolin-1-one], for which the IC50 is more than 20 µM.

Consider `O=C1NCc2c(-c3ccccc3)ccc(NCCN3CCOCC3)c21` [Example 260, 7-((2-Morpholinoethyl)amino)-4-phenylisoindolin-1-one], for which the IC50 is more than 20 µM.

`CNCCNc1ccc(-c2ccccc2)c2c1C(=O)NC2` [Example 261, 7-((2-(Methylamino)ethyl)amino)-4-phenylisoindolin-1-one]: the IC50 was more than 20 µM.

Turning to `O=C1NCc2c(-c3ccccc3)ccc(NCCN3CCCC3)c21` [Example 262, 4-Phenyl-7-((2-(pyrrolidin-1-yl)ethyl)amino)isoindolin-1-one], the IC50 was more than 20 µM.

Turning to `O=C1NCc2c(-c3ccccc3)ccc(NCc3ccccc3)c21` [Example 263, 7-(Benzylamino)-4-phenylisoindolin-1-one], the IC50 is more than 20 µM.

Regarding `Nc1ccc(-c2ccccc2)c2c1C(=O)NC2=O` [Example 271, 4-Amino-7-phenylisoindolin-1,3-dione], the IC50 was determined as 2.5 µM.

Take `COc1ccccc1-c1ccc(N)c2c1C(=O)NC2=O` [Example 272, 4-Amino-7-(2-methoxyphenyl)isoindolin-1,3-dione]: the IC50 was determined as 10.9 µM.

With `Nc1ccc(-c2ccco2)c2c1C(=O)NC2=O` [Example 274, 4-Amino-7-(furan-2-yl)isoindolin-1,3-dione], the IC50 worked out at 3.6 µM.

Turning to `Nc1ccc(-c2cccs2)c2c1C(=O)NC2=O` [Example 275, 4-Amino-7-(thiophen-2-yl)isoindolin-1,3-dione], the IC50 was 1.1 µM.

`O=C(Nc1ccc(-c2ccccc2)c2c1C(=O)NC2=O)c1ccccc1` [Example 276, N-(1,3-dioxo-7-phenylisoindolin-4-yl)benzamide]: the IC50 turned out to be 1.1 µM.

Turning to `COc1ccccc1-c1ccc(NC(=O)c2ccccc2)c2c1C(=O)NC2=O` [Example 277, N-(7-(2-methoxyphenyl)-1,3-dioxoisoindolin-4-yl)benzamide], the IC50 was 0.65 µM.

As to `COc1cccc(-c2ccc(NC(=O)c3ccccc3)c3c2C(=O)NC3=O)c1OC` [Example 278, N-(7-(2,3-dimethoxyphenyl)-1,3-dioxoisoindolin-4-yl) benzamide], the IC50 came out at 0.41 µM.

Consider `O=C(Nc1ncc(-c2ccccc2)c2c1C(=O)NC2)c1ccc(F)cc1` [Example 279, 4-Fluoro-N-(3-oxo-7-phenyl-2,3-dihydro-1H-pyrrolo[3,4-c]pyridin-4-yl)benzamide], for which the IC50 was more than 20 µM.

On to `COc1cccc(-c2ccc(NC(=O)c3ccc(NCCCN4CCCC4)cc3)c3c2CNC3=O)c1OC` [Example 280, N-(7-(2,3-dimethoxyphenyl)-3-oxoisoindolin-4-yl)-4-((3-(pyrrolidin-1-yl)propyl)amino)benzamide], for which the IC50 is 0.073 µM.
